Values joined by “and” are separate entries in the source; they are usually repeats but may differ in a detail not shown here. Identical values can stand only once.
Assays:
[1] = tested on: mitochondrial translation in CD4+ and CD8+ T cells; experiment: Mito-FUNCAT-FACS assay of mitochondrial translation on activated T cells; format: cell-based, human; conditions: for mitochondrial translation (fold change relative to negative control): per PBMC donor
Protocol: Thawed PBMCs were washed with RPMI ( + 10% FBS, 2.05 mM L-glutamine (Sigma), and 55 μM 2-ME (Gibco)) before resting at 37 °C (5% CO2) for 30 min. After counting, cells were resuspended in FACS buffer at a density of 5 × 10^7 cells/ml. T cells were isolated using EasySep™ Human T Cell Isolation Kit (Stemcell Technologies). Purified T cells were counted and 85,000 cells per well seeded onto 96-well U-bottom plates with/without Human T-Activator CD3/CD28 beads (Invitrogen) at a 1:2.8 cell:bead ratio and 10 ng/ml IL-2 (Proteintech) in RPMI-1640 ( + 10% FBS, 2.05 mM L-glutamine (Sigma), and 55 μM 2-ME (Gibco)) for 48 h. To assess mitochondrial translation, activated T cells were washed twice with methionine/cysteine/pyruvate-free DMEM and incubated in methionine-depletion medium (DMEM supplemented with 10% dialyzed FBS, 1× GlutaMAX, 1× sodium pyruvate, and 0.2 mM L-cystine) for 30 min at 37 °C. To inhibit cytosolic translation, anisomycin (100 μg/mL) was added to the medium. For mitochondrial translation inhibition, 100 µg/mL chloramphenicol (309 μM, positive control) or tigecycline (2.5−10 μM) were added to the medium. Cells were then labeled with 50 μM L-homopropargylglycine (HPG) for 3 h at 37 °C, during which time the medium still contained antibiotics.
Following HPG labeling, cells were collected and stained with surface markers (CD4, CD8). Cells were pre-permeabilized with 0.005% digitonin in mitochondria-protective buffer (10 mM HEPES/KOH, 10 mM NaCl, 5 mM MgCl2, 300 mM sucrose, pH 7.5) for 3 min, fixed with 4% paraformaldehyde for 10 min, and fully permeabilized with 0.25% Triton X-100 for 5 min. After blocking with 5% BSA for 10 min, incorporated HPG was detected via copper-catalyzed cycloaddition using 0.05 μM Alexa Fluor 488 picolyl azide (Click-iT™ Plus Alexa Fluor™ 488 Picolyl Azide Toolkit, Gibco) for 30 min at room temperature. Subsequently, the reaction cocktail was removed and cells resuspended in FACS buffer. Flow cytometry was carried out on a BD Celesta (BD Biosciences) and analyzed in FlowJo (TreeStar). Data are presented as fold change relative to negative controls.

[2] = tested on: OXPHOS complexes; experiment: Western blotting for OXPHOS complexes in Jurkat T cells and PBMCs; format: cell-based; conditions: Jurkat T cells and human PBMCs, 5 μM, 6 days
Protocol: Human PBMCs and Jurkat T cells were seeded in 6-well plates at a density of 1 million cells/ml and incubated with or without antibiotics in RPMI-1640 medium (with 10% FBS, 2.05 mM L-glutamine (Sigma), and 55 μM 2-ME (Gibco)) for 6 days. After centrifugation, cells were lysed in RIPA buffer containing protease and phosphatase inhibitors (cOmplete and PhosSTOP, respectively, Roche). Protein concentrations were determined by BCA (Pierce, Thermo Fisher). Protein samples were resuspended with 1× NuPAGE LDS sample buffer (Thermo Fisher) supplemented with 100 mM dithiothreitol, heated for 10 min at 75 °C, and separated on NuPAGE 4–12% Bis-Tris mini gels (Thermo Fisher) using NuPAGE 1× MES (Thermo Fisher) running buffer, and transferred to PVDF membranes (0.45 μm, Immobilon-P, Sigma) using the iBlot2 system (Invitrogen). Non-specific binding was blocked with TBST containing 5% non-fat milk, followed by overnight incubation at 4 °C with antibodies against Total OXPHOS Human WB Antibody Cocktail (Abcam, Cambridge, UK), followed by HRP-conjugated secondary antibodies for 1 h at room temperature. β-actin, HSP60, and GAPDH (Cell Signaling Technology) were used as loading control. Proteins were detected using Clarity Western ECL Substrate (Bio-Rad, 170-5061). For an example of presentation of full scan blots, see the Source Data file.

[3] = tested on: CD4+ and CD8+ T cells; experiment: Short-term activation assay, CD25 expression on stimulated T cells; format: cell-based, human; conditions: for mean MFI of CD25: 18 h after anti-CD3/CD28 activation + IL-2
Protocol: After thawing frozen PBMCs, cells were washed with RPMI complemented with 10% FBS, 2.05 mM L-glutamine (Sigma), and 55 μM 2-ME (Gibco) and rested at 37 °C (5% CO2) for 30 min. 250,000 cells per well were seeded in 96-well U-bottom plates with/without Human T-Activator CD3/CD28 beads (Invitrogen) at a 1:1 ratio and 10 ng/ml IL-2 (Proteintech) in RPMI-1640 medium mentioned above. At the same time, antibiotics were added. For the short-term activation assay, cells were harvested 18 h post-stimulation and stained with Aqua fixable live/dead dye (Invitrogen) and surface markers. For the proliferation assays, cells were stained with CFSE (eBioscience) or Cell Trace Violet (ThermoFisher Scientific) dyes before seeding and stimulation, according to the manufacturer’s recommendations. For TCR priming experiments, tigecycline was added at 0, 24 or 72 h post-activation. For mitochondrial mass measuring, cells were stained with Mitotracker Green Fm Dye (Thermo Fisher Scientific) after incubation with Tigecycline. After incubation for 6 days with a half medium (complete, with antibiotics and IL-2) change after 3 days, cells were harvested via centrifugation, and stained with live/dead dye and surface markers for analysis by flow cytometry. The Foxp3/Transcription Factor Staining Buffer Set (Invitrogen) was used to fix cells according to the manufacturer’s instructions. The FACS gating strategy is shown in Supplementary Fig. 2D. Flow cytometry was carried out on a BD Celesta (BD Biosciences) and analyzed in FlowJo (TreeStar) software.

## CN(C)c1cc(NC(=O)CNC(C)(C)C)c(O)c2c1C[C@H]1C[C@H]3[C@H](N(C)C)C(O)=C(C(N)=O)C(=O)[C@@]3(O)C(O)=C1C2=O [Tigecycline, tigecycline]
[1]; CD4, 2.5µM
  mitochondrial translation (fold change relative to negative control): 0.947 and 0.7157 and 0.7389
[1]; CD4, 5µM
  mitochondrial translation (fold change relative to negative control): 0.8077 and 0.645 and 0.697
[1]; CD4, 10µM
  mitochondrial translation (fold change relative to negative control): 0.7443 and 0.3992 and 0.6483 and 0.5621
[1]; CD8, 2.5µM
  mitochondrial translation (fold change relative to negative control): 0.9388 and 0.7432 and 0.8324
[1]; CD8, 5µM
  mitochondrial translation (fold change relative to negative control): 0.8134 and 0.656 and 0.7756
[1]; CD8, 10µM
  mitochondrial translation (fold change relative to negative control): 0.7567 and 0.4193 and 0.7571 and 0.5029
[1]; TCR-stimulated CD4+ and CD8+ T cells, 2.5-10 μM
  inhibition of mitochondrial translation: dose-dependent inhibition of mitochondrial translation
[2]
  levels of subunits of complex I (NDUFB8), complex III (UQCRCII) and complex IV (COX2): drop
  levels of subunits of complex II (SDHB) and complex V (ATP5A): less affected
[3]; CD4, 2.5 μM
  mean MFI of CD25: 3754 and 3553 and 3674
[3]; CD4, 5 μM
  mean MFI of CD25: 3471 and 3450 and 3256
[3]; CD4, 10 μM
  mean MFI of CD25: 3082 and 3057 and 2814
[3]; CD8, 2.5 μM
  mean MFI of CD25: 4522 and 5003 and 6223
[3]; CD8, 5 μM
  mean MFI of CD25: 4093 and 4409 and 4799
[3]; CD8, 10 μM
  mean MFI of CD25: 3582 and 3463 and 3588
[3]; stimulated CD4+ and CD8+ T cells, 18 h post-priming
  expression of T cell activation marker CD25 (IL2RA): reduced expression
